From patent US20040121316A1 (priority 2002, published 2004)
Where two headings read alike, the source gives them in different places.

Columns and labels:
HIV-1 48V82A90M = assay: microbe, parasite or virus in culture; type: cell-based; details: MT-4, 48V82A90M; read-out: Cell-based assay (MT-4) EC50/nM 48V82A90M
HIV-1 48V54V82A = assay: microbe, parasite or virus in culture; type: cell-based
HIV-1 46I50V = assay: microbe, parasite or virus in culture; type: cell-based
HIV-1 30N82I88D = assay: microbe, parasite or virus in culture; type: cell-based
HIV-1 48V54V82S = assay: microbe, parasite or virus in culture; type: cell-based; details: MT-4, 48V54V82S; read-out: Cell-based assay (MT-4) EC50/nM 48V54V82S
WT HIV-1 [1] = assay: microbe, parasite or virus in culture; type: cell-based
84V90M HIV protease = 84V90M HIV protease (Human immunodeficiency virus type 1 group M subtype B, UniProt P04585, I572V/L578M); assay: biochemical; parameters: species or system HIV-1
HIV-1 84V90M = assay: microbe, parasite or virus in culture; type: cell-based
[2] = tested on: recombinant HIV-1 46I 47V 50V; assay: microbe, parasite or virus in culture; type: cell-based; details: Human immunodeficiency virus 1, MT4, read-out: Cell-based assay (MT-4) EC50/nM 47I 50V
[3] = tested on: recombinant HIV-1 48V 54V 71V 82S; assay: microbe, parasite or virus in culture; type: cell-based; details: Human immunodeficiency virus 1, MT4, read-out: Cell-based assay (MT-4) EC50/nM 48V 54V 82S
[4] = tested on: recombinant HIV-1 10I 48V 54V 82A; assay: microbe, parasite or virus in culture; type: cell-based; details: Human immunodeficiency virus 1, MT4, read-out: Cell-based assay (MT-4) EC50/nM 48V 54V 82A
[5] = tested on: recombinant HIV-1 30N 50S 82I 88D; assay: microbe, parasite or virus in culture; type: cell-based; details: Human immunodeficiency virus 1, MT4, read-out: Cell-based assay (MT-4) EC50/nM 30N 82I 88D
WT HIV-1 [6] = assay: microbe, parasite or virus in culture; type: cell-based; details: Human immunodeficiency virus 1, MT4, read-out: Cell-based assay (MT-4) EC50/nM WT
[7] = tested on: recombinant HIV-1 10I 48V 71V 82A 90M; assay: microbe, parasite or virus in culture; type: cell-based; details: Human immunodeficiency virus 1, MT4, read-out: Cell-based assay (MT-4) EC50/nM 48V 82A 90M
[8] = tested on: recombinant HIV-1 10I 84V 71V 73S 90M; assay: microbe, parasite or virus in culture; type: cell-based; details: Human immunodeficiency virus 1, MT4, read-out: Cell-based assay (MT-4) EC50/nM 84V 90M
[9] = tested on: wild-type HIV-1 strain IIIB; assay: microbe, parasite or virus in culture; type: cell-based; details: Human immunodeficiency virus 1, IIIB
[10] = tested on: recombinant HIV-1 strains with resistance mutations in the protease gene; assay: Cross-Resistance Profile Assay, whole panel; type: cell-based; details: {}
[11] = MT-4, 48V54V82A, read-out: Cell-based assay (MT-4) EC50/nM 48V54V82A
[12] = MT-4, 46I50V, read-out: Cell-based assay (MT-4) EC50/nM 46I50V
[13] = MT-4, 30N82I88D, read-out: Cell-based assay (MT-4) EC50/nM 30N82I88D
[14] = Human immunodeficiency virus 1, read-out: Cell-based assay (MT-4) EC50/nM 48V54V82A
[15] = Human immunodeficiency virus 1, read-out: Cell-based assay (MT-4) EC50/nM 46I50V
[16] = Human immunodeficiency virus 1, read-out: Cell-based assay (MT-4) EC50/nM 30N82I88D
[17] = Human immunodeficiency virus 1, read-out: Cell-based assay (MT-4) EC50/nM WT
[18] = Human immunodeficiency virus 1, read-out: Cell-based assay (MT-4) EC50/nM 84V90M

CCOP(=O)(COc1ccc(CC2C(O)C(O)C(Cc3ccc(OC)cc3)N(Cc3cccnc3)C(=O)N2Cc2cccnc2)cc1)OCC (stereo not drawn) [OCH3, m-pyridine, OCH2PO3Et2]
EC50 (HIV-1 48V82A90M): 480 nM | EC50 (HIV-1 48V54V82A; [11]): 1020 nM | EC50 (HIV-1 46I50V; [12]): 352 nM | EC50 (HIV-1 30N82I88D; [13]): 106 nM | EC50 (HIV-1 48V54V82S): 970 nM

CCOP(=O)(CCCNC(=O)c1cccc(CN2C(=O)N(Cc3ccc4[nH]nc(N)c4c3)C(Cc3ccccc3)C(O)C(O)C2Cc2ccccc2)c1)OCC (stereo not drawn) [drawing 809]
EC50 (HIV-1 48V54V82A; [14]): 240 nM | EC50 (HIV-1 46I50V; [15]): 319 nM | EC50 (HIV-1 30N82I88D; [16]): 666 nM | EC50 (WT HIV-1 [1]; [17]): 188 nM | IC50 (84V90M HIV protease): 10 nM | EC50 (HIV-1 84V90M; [18]): 476 nM

CCOP(=O)(COCCCCN1C(=O)N(Cc2ccc3[nH]nc(N)c3c2)C(Cc2ccccc2)C(O)C(O)C1Cc1ccccc1)OCC (stereo not drawn) [CH2OCH2PO3Et2]
EC50 (HIV-1 48V54V82A; [14]): 430 nM | EC50 (HIV-1 30N82I88D; [16]): 267 nM | EC50 (WT HIV-1 [1]; [17]): 119 nM | IC50 (84V90M HIV protease): 123 nM | EC50 (HIV-1 84V90M; [18]): 3300 nM

Nc1n[nH]c2ccc(CN3C(=O)N(Cc4ccc(O)cc4)C(Cc4ccccc4)C(O)C(O)C3Cc3ccccc3)cc12 (stereo not drawn) [p-OH]
EC50 (HIV-1 48V82A90M): 19 nM | EC50 (HIV-1 48V54V82A; [11]): 32 nM | EC50 (HIV-1 46I50V; [12]): 55 nM | EC50 (HIV-1 30N82I88D; [13]): 79 nM | EC50 (HIV-1 48V54V82S): 39 nM

O=C(O)c1cccc(CN2C(=O)N(Cc3ccc(O)cc3)C(Cc3ccccc3)C(O)C(O)C2Cc2ccccc2)c1 (stereo not drawn)
EC50 (HIV-1 30N82I88D; [16]): 887 nM | EC50 (WT HIV-1 [1]; [17]): 3060 nM | IC50 (84V90M HIV protease): 174 nM | EC50 (HIV-1 84V90M; [18]): > 6000 nM

CCOP(=O)(COc1ccc(CC2C(O)C(O)C(Cc3ccccc3)N(Cc3ccc(O)cc3)C(=O)N2Cc2ccc(O)cc2)cc1)OCC (stereo not drawn) [H/Ph-pOH/OCH2PO3Et2]
EC50 [2]: 144 nM | EC50 [3]: 222 nM | EC50 [4]: 128 nM | EC50 [5]: 90 nM | EC50 (WT HIV-1 [6]): 65 nM | EC50 [7]: 146 nM

Nc1n[nH]c2ccc(CN3C(=O)N(Cc4cccc(C(=O)O)c4)C(Cc4ccccc4)C(O)C(O)C3Cc3ccccc3)cc12 (stereo not drawn)
EC50 (HIV-1 30N82I88D; [16]): > 6000 nM | IC50 (84V90M HIV protease): 27 nM | EC50 (HIV-1 84V90M; [18]): > 6000 nM

CCOP(=O)(COc1ccc(CC2C(O)C(O)C(Cc3ccc(O)cc3)N(Cc3ccc(O)cc3)C(=O)N2Cc2ccc(O)cc2)cc1)OCC (stereo not drawn) [OH, Ph-pOH, OCH2PO3Et2]
EC50 (HIV-1 48V54V82A; [14]): 986 nM | EC50 (HIV-1 46I50V; [15]): 1110 nM | EC50 (HIV-1 30N82I88D; [16]): 211 nM | EC50 (WT HIV-1 [1]; [17]): 285 nM | IC50 (84V90M HIV protease): 18 nM | EC50 (HIV-1 84V90M; [18]): 1910 nM

Nc1n[nH]c2ccc(CN3C(=O)N(CCCOCP(=O)(O)O)C(Cc4ccccc4)C(O)C(O)C3Cc3ccccc3)cc12 (stereo not drawn) [OCH2PO3H2]
EC50 (WT HIV-1 [1]; read-out: Cell-based assay (MT-4) EC50/nM WT): 1070 nM | EC50 (HIV-1 84V90M; MT-4, 84V90M, read-out: Cell-based assay (MT-4) EC50/nM 84V90M): > 6000 nM

O=C1N(Cc2ccccc2)C(Cc2ccccc2)C(O)C(O)C(Cc2ccc(O)cc2)N1Cc1ccccc1 (stereo not drawn) [H/Ph/OH]
EC50 [4]: > 6000 nM | EC50 [8]: > 6000 nM | EC50 [5]: 2950 nM | EC50 (WT HIV-1 [6]): 1260 nM

CC(C)(C)NC(=O)[C@@H]1CN(Cc2cccnc2)CCN1C[C@@H](O)C[C@@H](Cc1ccccc1)C(=O)N[C@H]1c2ccccc2C[C@H]1O [Indinavir, reference compound]
EC50 [9]: < 50 nM | Total No. of Resistant Viruses [10]: 8

CCOP(=O)(COCCCN1C(=O)N(Cc2ccc3[nH]nc(N)c3c2)C(Cc2ccccc2)C(O)C(O)C1Cc1ccccc1)OCC (stereo not drawn) [OCH2PO3Et2]
EC50 (HIV-1 48V54V82A; [14]): 175 nM | EC50 (HIV-1 46I50V; [15]): 138 nM | EC50 (HIV-1 30N82I88D; [16]): 145 nM | EC50 (WT HIV-1 [1]; [17]): 356 nM | IC50 (84V90M HIV protease): 157 nM | EC50 (HIV-1 84V90M; [18]): > 6000 nM
